What follows are molecules tested against T1, human ERK-2 (Mitogen Activated Kinase 1) (Homo sapiens, UniProt P28482) (assay: ERK-2 Enzymatic Assay). Conditions: TABLE II; 5nM ERK-2 enzyme, 25µM ATP, S/T17 peptide substrate; single assay or mean of multiple assays.
T1 construct: N-terminal 6-His fusion protein in E. coli and corresponding to aa 8-360; 6-His (N); made in house; host or cells: E. coli
T1 sequence (P28482 8-360): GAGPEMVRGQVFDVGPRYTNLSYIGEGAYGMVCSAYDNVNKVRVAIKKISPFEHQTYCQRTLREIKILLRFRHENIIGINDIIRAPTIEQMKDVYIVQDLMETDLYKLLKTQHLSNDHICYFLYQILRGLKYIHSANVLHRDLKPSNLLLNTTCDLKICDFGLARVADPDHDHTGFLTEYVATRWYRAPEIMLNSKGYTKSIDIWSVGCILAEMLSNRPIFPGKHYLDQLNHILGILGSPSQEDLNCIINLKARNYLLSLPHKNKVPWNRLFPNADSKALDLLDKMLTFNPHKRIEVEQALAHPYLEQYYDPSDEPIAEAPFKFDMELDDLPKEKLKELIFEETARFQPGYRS
Assay type: biochemical
Method: Compounds were tested in an enzymatic assay using human ERK-2 (Mitogen Activated Kinase 1), recombinantly expressed as an N-terminal 6-His fusion protein in E. coli and corresponding to aa 8-360. The substrate used was the fluorescent Omnia peptide S/T17 (Invitrogen of Carlsbad, CA; Cat. KNZ1171C). Test compounds were diluted in DMSO in 3-fold serial dilutions at 100x final concentrations. […] The assay was run at ambient temperature in a white 384-well polypropylene plate (Nunc, Inc of Naperville, IL; Cat. 267462) collecting data every 50 seconds for approximately 30 minutes on an Envision plate reader (PerkinElmer, Inc. of Waltham, MA); Excitation 340 nm/Emission 495 nm. The data collected from each well was fit to a straight line and the resulting rates were used to calculate percent of control. Percent of control was plotted against compound concentration and IC50 values were determined using a four-parameter fit. Representative data is in TABLE I and TABLE II. The reported IC50 may be from a single assay or the mean of multiple assays.
With `COc1ccc([C@H](NC(=O)c2ccc3cnc(Nc4ccnn4C)nc3c2)c2cnn(C)c2)cc1F` [II-16] the IC50 was 2.1 nM. `COc1ccc([C@H](NC(=O)c2ccc3cnc(Nc4ccnc(C)c4)nc3c2)c2cnn(C)c2)cc1F` [II-17] gave an IC50 of 4.8 nM. Molecule `COc1ccc([C@H](NC(=O)c2cc(F)c3cnc(Nc4cn(C)nc4C)nc3c2)c2cnn(C)c2)cc1F` [II-19] has an IC50 of 6.8 nM. Molecule `COc1ccc([C@H](NC(=O)c2cc(F)c3cnc(N[C@@H](C)CO)nc3c2)c2cnn(C)c2)cc1F` [II-21] has an IC50 of 2.3 nM. Work on `COc1ccc([C@H](NC(=O)c2cc(F)c3cnc(NC4CCOCC4)nc3c2)c2cnn(C)c2)cc1` [II-22] yielded an IC50 of 7 nM. For `COc1ccc([C@H](NC(=O)c2cc(F)c3cnc(Nc4ccnn4C)nc3c2)c2cnn(C)c2)cc1F` [II-23], the IC50 was 10.8 nM. Molecule `Cc1cc(Nc2ncc3ccc(C(=O)N[C@@H](c4ccc(Cl)c(F)c4)c4cnn(C)c4)cc3n2)n(C)n1` [II-24] has an IC50 of 14.6 nM. Molecule `C[C@@H](CO)Nc1ncc2c(F)cc(C(=O)N[C@@H](c3cccc(F)c3)c3cnn(C)c3)cc2n1` [II-26] has an IC50 of 5.6 nM. In the case of `COc1ccc([C@H](NC(=O)c2ccc3cnc(Nc4cn(C)nc4C)nc3c2)c2cnn(C)c2)cc1F` [II-27], the IC50 is reported as 960 nM. `COc1ccc([C@H](NC(=O)c2ccc3cnc(NC4CCOCC4)nc3c2)c2ccnn2C)cc1F` [II-28] showed an IC50 of 3 nM. Work on `COc1ccc([C@H](NC(=O)c2cc(F)c3cnc(NC4CCOCC4)nc3c2)c2ccnn2C)cc1F` [II-29] yielded an IC50 of 2.2 nM. With `COc1ccc([C@H](NC(=O)c2ccc3cnc(N[C@H]4C[C@H]5C[C@@H]4CO5)nc3c2)c2cnn(C)c2)cc1F` [II-30] the IC50 was 1000 nM. `COCC(C)Nc1ncc2ccc(C(=O)N[C@@H](c3ccc(OC)c(F)c3)c3cnn(C)c3)cc2n1` (stereo partly drawn) [II-31] showed an IC50 of 15 nM. `COc1ccc([C@H](NC(=O)c2cc(F)c3cnc(N[C@H]4C[C@@H](F)C4)nc3c2)c2cnn(C)c2)cc1F` [II-33] gave an IC50 of 3.8 nM. For `COc1ccc(C(NC(=O)c2cc(F)c3cnc(NC4CC5CC4CO5)nc3c2)c2cnn(C)c2)cc1F` (stereo not drawn) [II-34], the IC50 was 1000 nM. `COc1ccnc(C(NC(=O)c2cc(F)c3cnc(NC4CCOCC4)nc3c2)c2cnn(C)c2)c1` (stereo not drawn) [II-35] showed an IC50 of 61 nM. `COc1ccc([C@H](NC(=O)c2ccc3cnc(N[C@H]4CCOC[C@H]4F)nc3c2)c2ccnn2C)cc1F` [II-36] gave an IC50 of 3.8 nM. `COc1ccc([C@H](NC(=O)c2ccc3cnc(N[C@H]4CCOC[C@@H]4F)nc3c2)c2ccnn2C)cc1F` [II-37] gave an IC50 of 3.6 nM. For `Cn1nccc1[C@@H](NC(=O)c1ccc2cnc(NC3CCOCC3)nc2c1)c1ccc(Cl)c(F)c1` [II-39], the IC50 was 151 nM. `Cn1nccc1[C@@H](NC(=O)c1ccc2cnc(NC3CCOCC3)nc2c1)c1ccc(C#N)c(Cl)c1` [II-40] was tested, and the IC50 was 26 nM. For `Cn1cc([C@@H](NC(=O)c2ccc3cnc(NC4CCOCC4)nc3c2)c2ccc(C(F)(F)F)c(F)c2)cn1` [II-41], the IC50 was 5.2 nM. `Cn1nccc1Nc1ncc2ccc(C(=O)NC(c3ccc(Cl)c(F)c3)C3(F)CCNC3)cc2n1` (stereo not drawn) [II-42] gave an IC50 of 34.6 nM. In the case of `Cn1cc(C(NC(=O)c2ccc3cnc(NC4CCOCC4)nc3c2)c2ccc(OC(F)F)cc2)cn1` (stereo not drawn) [II-43], the IC50 is reported as 12.1 nM. `O=C(N[C@@H](c1ccc(OC(F)(F)F)c(F)c1)[C@H]1CCCNC1)c1ccc2cnc(NC3CCOCC3)nc2c1` [II-44] was tested, and the IC50 was 216 nM. In the case of `O=C(N[C@@H](c1ccc(OC(F)(F)F)c(F)c1)C1CNCCO1)c1ccc2cnc(NC3CCOCC3)nc2c1` (stereo partly drawn) [II-45], the IC50 is reported as 6.9 nM. Molecule `COc1ccc([C@H](NC(=O)c2cc(F)c3cnc(NC4CCOCC4)nc3c2)c2cncn2C)cc1F` [II-46] has an IC50 of 1.1 nM. In the case of `COc1ccc([C@H](NC(=O)c2cc(F)c3cnc(NC4CCOCC4)nc3c2)c2cnco2)cc1F` [II-47], the IC50 is reported as 1.3 nM. Molecule `COc1ccc([C@H](NC(=O)c2cc(F)c3cnc(NC4CCOCC4)nc3c2)c2cnnn2C)cc1F` [II-48] has an IC50 of 1.4 nM. `COc1ccc([C@H](NC(=O)c2cc(F)c3cnc(NC4CCOCC4)nc3c2)c2cn(C)cn2)cc1F` [II-49] was tested, and the IC50 was 85.5 nM. In the case of `COc1ccc([C@H](NC(=O)c2cc(F)c3cnc(NC4CCOCC4)nc3c2)c2ncc[nH]2)cc1F` [II-50], the IC50 is reported as 59.1 nM.

Reference: patent EP2739618B1, “QUINAZOLINE COMPOUNDS AS SERINE/THREONINE KINASE INHIBITORS” (Array Biopharma, Inc., priority 2011, dated 2013)
